Tests used:
JAK2 (JH1 domain) = JAK2 (JH1 domain) (Homo sapiens (Human), UniProt O60674); test: JAK2 JH1 domain binding assay (KINOMEscan)
Description: (§6) The assay is performed by combining three components: DNA-tagged kinase; immobilized ligand; and a test compound. The ability of the test compound to compete with the immobilized ligand is measured via quantitative PCR of the DNA tag.
(§7) The liganded beads were blocked with excess biotin and washed with blocking buffer (SeaBlock (Pierce), 1% BSA, 0.05% Tween 20, 1 mM DTT) to remove unbound ligand and to reduce non-specific binding. […] Test compounds were prepared as 111× stocks in 100% DMSO. All test compounds were shipped to DiscoverX in DMSO with concentration of 10 mM. Kds were determined using an 11-point 3-fold compound dilution series with three DMSO control points. Each compound was tested in duplicate. […] The compounds were then diluted directly into the assays such that the final concentration of DMSO was 0.9%. All reactions performed in polypropylene 384-well plate. Each was a final volume of 0.02 ml. […] The kinase concentration in the eluates was measured by qPCR.
(§8) The amount of kinase measured by qPCR (Signal; y-axis) is plotted against the corresponding compound concentration in nM in log 10 scale (x-axis). Binding constants (Kds) were calculated with a standard dose-response curve using the Hill equation:
(§9) Similar to the method for TYK2 JH2 binding described above, JAK1 JH2 and JAK2 JH1 domain binding assay was performed using DiscoverX's KINOMEscan™, but with change of kinase domain.

[1] = Pharmacokinetic study in Beagle dogs; format: in vivo; details: dog, plasma; for Vd: read-out: Vdss
Description: (§1) The pharmacokinetics of test compounds were evaluated in male C57BL/6 mice, Sprague Dawley rats, Beagle dogs, and cynomolgus monkeys when administered via oral gavage and IV injection. The animals were fasted overnight before administration. Plasma samples were collected predose and at 0.5, 1, 3, 6, 9, 12, and 24 hours postdose. The samples were analyzed by LC/MS/MS and the concentration of test compound at each timepoint was determined by linear regression. Pharmacokinetic parameters were calculated from the plasma concentrations using Pheonix WinNonlin.

[2] = tested on: INFα induced pSTAT5 in human PBMC; test: INFα induced pSTAT5 in human PBMC; format: cell-based; details: human PBMC, INFα 5000 units/ml; read-out: p-STAT5 IC50
[3] = tested on: GM-CSF-induced pSTAT5 in human PBMC; test: GM-CSF-induced pSTAT5 in human PBMC; format: cell-based; details: GM-CSF 10 ng/ml
Description: (§2) Fresh Human PBMCs were resuspended in RPMI 1640 medium with 10% FBS. Cells were seeded in a round bottom 96-well plate at the concentration of 200,000 cells/well. A 10-point dilution series of test compound (top dose 10 uM, 1:5 dilution) was added to the well using the liquid dispenser (Tecan D300e) and incubated for 1 hour at 37 C. Then human IL-12 recombinant protein (R&D Systems) was added to the well at the final concentration of 10 ng/ml and incubated for 15 minutes at 37 C. Cell lysates were prepared and analyzed by Phospho STAT4 (Tyr693) Kit (Meso Scale Discovery) following manufacturer's protocol.
(§3) For calculation of the inhibition rate, the relative pSTAT4 signal of each well=pSTAT4 signal of each well−the average pSTAT4 signal of baseline. The inhibition %=(the average pSTAT4 signal of IL-12 treatment wells−the relative of pSTAT4 signal in each compound containing well)/the average pSTAT4 signal of IL-12 treatment wells*100%
(§4) The curve was plotted as the inhibition % (y-axis) vs. compounds concentration (x-axis) and was fitted with log(inhibitor) vs. normalized response—Variable slope by GraphPad Prism7.0. Control is BMS-986165:
(§5) Similar to the method for IL-12 induced pSTAT4 in human PBMC described above, these assays were performed to check if test compounds have cross-activity to JAK1. JAK2 and JAK3 pathways in human PBMC. The procedure is as described with change of stimuli to 10 ng/ml of GM-CSF or 20 ng/ml of IL-2.

[4] = Pharmacokinetic study in Sprague Dawley rats; format: in vivo; details: rat, plasma; for Vd: read-out: Vdss
Description: as §1

[5] = tested on: IL-2-induced pSTAT5 in human PBMC; test: IL-2-induced pSTAT5 in human PBMC; format: cell-based; details: IL-2 20 ng/ml
Description: as §2, §3, §4, §5

JAK1 (JH2 domain) = JAK1 (JH2 domain) (Homo sapiens (Human), UniProt P23458); test: JAK1 JH2 domain binding assay (KINOMEscan); details: KINOMEscan; read-out: JAK1 (JH2 domain) binding Kd
Sequence of JAK1 (JH2 domain) (P23458 583-855): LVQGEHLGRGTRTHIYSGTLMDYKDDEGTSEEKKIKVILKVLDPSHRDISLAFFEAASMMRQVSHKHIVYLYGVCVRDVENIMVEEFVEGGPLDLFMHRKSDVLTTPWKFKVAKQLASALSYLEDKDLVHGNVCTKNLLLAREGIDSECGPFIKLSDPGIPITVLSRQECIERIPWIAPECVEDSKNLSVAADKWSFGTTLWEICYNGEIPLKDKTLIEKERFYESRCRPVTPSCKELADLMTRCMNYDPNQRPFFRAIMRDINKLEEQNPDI
Description: as §6, §7, §8, §9

[6] = Pharmacokinetic study in C57BL/6 mice; format: in vivo; parameters: AUC: unit not given here; details: for Tmax / bioavailability / half-life / Cmax / clearance / Vd: male, mouse, plasma; for Vd: read-out: Vdss
Description: as §1

TYK2 (JH2 domain) = TYK2 (JH2 domain) (Homo sapiens (Human), UniProt P29597); test: TYK2 JH2 domain binding assay (DiscoverX KINOMEscan); details: 11-point 3-fold dilution, duplicate
Sequence of TYK2 (JH2 domain) (P29597 589-875): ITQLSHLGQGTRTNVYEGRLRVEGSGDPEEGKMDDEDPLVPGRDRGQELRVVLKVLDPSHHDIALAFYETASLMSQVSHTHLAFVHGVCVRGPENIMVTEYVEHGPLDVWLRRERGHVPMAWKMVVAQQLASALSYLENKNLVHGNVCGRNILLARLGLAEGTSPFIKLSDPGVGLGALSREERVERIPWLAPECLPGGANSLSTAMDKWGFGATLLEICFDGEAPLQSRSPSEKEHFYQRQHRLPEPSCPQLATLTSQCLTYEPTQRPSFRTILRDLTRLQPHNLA
Description: as §6, §7, §8
The Hill Slope was set to −1.
Curves were fitted using anon-linear least square fit with the Levenberg-Marquardt algorithm.

[7] = Pharmacokinetic study in cynomolgus monkeys; format: in vivo; details: cynomolgus monkey, plasma; for Vd: read-out: Vdss
Description: as §1

[8] = Oral (2 mg/kg), read-out: C0 or Cmax (Cmax)
[9] = Oral (5 mg/kg), read-out: C0 or Cmax (Cmax)
[10] = iv, I.V. (1 mg/kg), read-out: C0 or Cmax (C0)
[11] = Oral (10 mg/kg), read-out: C0 or Cmax (Cmax)
[12] = iv, I.V. (2 mg/kg), read-out: C0 or Cmax (C0)
[13] = Oral (2 mg/kg), NA: no detectable
[14] = Oral (2 mg/kg), NA: no detectable, read-out: C0 or Cmax (Cmax)
[15] = intravenous, printed on the Oral (2 mg/kg) line (probably belongs to I.V. 1 mg/kg)

Sequence of JAK2 (JH1 domain) (O60674 849-1124): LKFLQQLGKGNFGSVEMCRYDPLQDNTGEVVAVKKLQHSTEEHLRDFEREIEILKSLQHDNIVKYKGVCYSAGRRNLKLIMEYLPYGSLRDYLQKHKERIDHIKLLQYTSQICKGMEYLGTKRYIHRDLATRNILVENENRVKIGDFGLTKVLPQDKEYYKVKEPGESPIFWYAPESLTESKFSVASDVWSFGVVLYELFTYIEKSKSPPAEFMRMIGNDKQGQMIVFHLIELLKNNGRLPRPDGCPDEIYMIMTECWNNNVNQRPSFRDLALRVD

[2H]C([2H])([2H])CC(=O)c1cnc(NC(=O)C2CC2)cc1Nc1nccc(-c2ncn(C([2H])([2H])[2H])n2)c1OC [Example 200]
Kd (JAK2 (JH1 domain)): 1000 to 10000 nM | AUC ([1]; Oral (2 mg/kg)): 2620 ± 258 ng·h/mL | Tmax ([1]; Oral (2 mg/kg)): 1.33 h | bioavailability ([1]; Oral (2 mg/kg)): 82.9 ± 8.2% | half-life ([1]; Oral (2 mg/kg)): 8.51 ± 1.6 h | Cmax [1, 8]: 247 ± 17 ng/mL | AUC ([1]; iv, I.V. (0.5 mg/kg)): 790 ± 196 ng·h/mL | half-life ([1]; iv, I.V. (0.5 mg/kg)): 11.5 ± 1.6 h | Cmax ([1]; iv, I.V. (0.5 mg/kg), read-out: C0 or Cmax (C0)): 29.7 ± 14 ng/mL | Vd ([1]; iv, I.V. (0.5 mg/kg)): 8.37 ± 1.39 L/kg | IC50 [2]: < 100 nM | IC50 [3]: > 10000 nM | AUC ([4]; Oral (5 mg/kg)): 3660 ± 684 ng·h/mL | Tmax ([4]; Oral (5 mg/kg)): 1 h | bioavailability ([4]; Oral (5 mg/kg)): 42.7 ± 8% | half-life ([4]; Oral (5 mg/kg)): 4.22 ± 3.6 h | Cmax [4, 9]: 948 ± 43 ng/mL | AUC ([4]; iv, I.V. (1 mg/kg)): 1710 ± 19 ng·h/mL | clearance ([4]; iv, I.V. (1 mg/kg)): 9.42 ± 0.022 mL/min/kg | half-life ([4]; iv, I.V. (1 mg/kg)): 1.58 ± 0.21 h | Cmax [4, 10]: 1030 ± 47 ng/mL | Vd ([4]; iv, I.V. (1 mg/kg)): 1.24 ± 0.065 L/kg | IC50 [5]: 1000 to 10000 nM | Kd (JAK1 (JH2 domain)): < 100 nM | AUC ([6]; I.V. (2 mg/kg)): 4475 | AUC ([6]; Oral (10 mg/kg)): 19295 | Tmax ([6]; Oral (10 mg/kg)): 0.25 h | bioavailability ([6]; Oral (10 mg/kg)): 85.1% | half-life ([6]; Oral (10 mg/kg)): 2.01 h | Cmax [6, 11]: 4190 ng/mL | clearance ([6]; iv, I.V. (2 mg/kg)): 7.35 mL/min/kg | half-life ([6]; iv, I.V. (2 mg/kg)): 4.62 h | Cmax [6, 12]: 2390 ng/mL | Vd ([6]; iv, I.V. (2 mg/kg)): 1.5 L/kg | Kd (TYK2 (JH2 domain)): ≤ 1 nM | AUC [7, 13]: 4060 ± 251 ng·h/mL | Tmax [7, 13]: 2 h | bioavailability [7, 13]: 27.7 ± 1.7% | half-life [7, 13]: 8.6 ± 0.73 h | Cmax [7, 14]: 384 ± 22 ng/mL | AUC ([7]; iv, I.V. (1 mg/kg)): 7320 ± 202 ng·h/mL | clearance ([7]; iv, I.V. (1 mg/kg)): 1.87 ± 0.21 mL/min/kg | half-life ([7]; iv, I.V. (1 mg/kg)): 9.35 ± 1.57 h | Cmax [7, 10]: 677 ± 81 ng/mL | Vd ([7]; iv, I.V. (1 mg/kg)): 1.45 ± 0.18 L/kg

[2H]C([2H])([2H])CC(=O)c1cnc(Nc2ccc(C(C)(C)O)c(F)n2)cc1Nc1nccc(-c2ncn(C([2H])([2H])[2H])n2)c1OC [Example 201]
Kd (JAK2 (JH1 domain)): 100 to 1000 nM | AUC ([1]; Oral (2 mg/kg)): 442 ± 81 ng·h/mL | Tmax ([1]; Oral (2 mg/kg)): 2 h | bioavailability ([1]; Oral (2 mg/kg)): 38.5 ± 7.1% | half-life ([1]; Oral (2 mg/kg)): 5.05 ± 0.47 h | Cmax [1, 8]: 103 ± 28 ng/mL | AUC ([1]; iv, I.V. (1 mg/kg)): 575 ± 158 ng·h/mL | clearance ([1]; iv, I.V. (1 mg/kg)): 29.3 ± 8.01 mL/min/kg | half-life ([1]; iv, I.V. (1 mg/kg)): 4.54 ± 1.26 h | Cmax [1, 10]: 458 ± 336 ng/mL | Vd ([1]; iv, I.V. (1 mg/kg)): 7.41 ± 2.64 L/kg | IC50 [2]: < 100 nM | IC50 [3]: 100 to 1000 nM | AUC ([4]; Oral (5 mg/kg)): 499 ± 502 ng·h/mL | Tmax ([4]; Oral (5 mg/kg)): 0.42 ± 0.14 h | bioavailability ([4]; Oral (5 mg/kg)): 18.7 ± 18.9% | half-life ([4]; Oral (5 mg/kg)): 1.14 ± 0.2 h | Cmax [4, 9]: 185 ± 138 ng/mL | AUC ([4]; iv, I.V. (1 mg/kg)): 533 ± 225 ng·h/mL | clearance ([4]; iv, I.V. (1 mg/kg)): 34.3 ± 12 mL/min/kg | half-life ([4]; iv, I.V. (1 mg/kg)): 0.759 ± 0.6 h | Cmax [4, 10]: 1190 ± 116 ng/mL | Vd ([4]; iv, I.V. (1 mg/kg)): 1.31 ± 0.42 L/kg | IC50 [5]: 100 to 1000 nM | Kd (JAK1 (JH2 domain)): < 100 nM | Kd (TYK2 (JH2 domain)): ≤ 1 nM | AUC [7, 13]: 67.9 ± 21 ng·h/mL | Tmax [7, 13]: 2.33 ± 1.5 h | bioavailability [7, 13]: 4.67 ± 1.5% | half-life [7, 13]: 3.08 ± 0.66 h | Cmax [7, 14]: 13.9 ± 2 ng/mL | clearance [7, 15]: 23.2 ± 4.3 mL/min/kg | Vd [7, 15]: 1.47 ± 0.1 L/kg | AUC ([7]; iv, I.V. (1 mg/kg)): 726 ± 134 ng·h/mL | half-life ([7]; iv, I.V. (1 mg/kg)): 1.81 ± 0.76 h | Cmax [7, 10]: 849 ± 50 ng/mL

[2H]C([2H])([2H])CC(=O)c1cnc(Nc2ccc(C(C)(C)O)c(F)n2)cc1Nc1cccc(-c2ncn(C([2H])([2H])[2H])n2)c1OC [Example 202]
Kd (JAK2 (JH1 domain)): 100 to 1000 nM | AUC ([1]; Oral (2 mg/kg)): 555 ± 154 ng·h/mL | Tmax ([1]; Oral (2 mg/kg)): 1 h | bioavailability ([1]; Oral (2 mg/kg)): 55 ± 15% | half-life ([1]; Oral (2 mg/kg)): 1.59 ± 0.15 h | Cmax [1, 8]: 156 ± 53 ng/mL | AUC ([1]; iv, I.V. (1 mg/kg)): 504 ± 49 ng·h/mL | clearance ([1]; iv, I.V. (1 mg/kg)): 32.7 ± 3.1 mL/min/kg | half-life ([1]; iv, I.V. (1 mg/kg)): 1.74 ± 0.28 h | Cmax [1, 10]: 469 ± 255 ng/mL | Vd ([1]; iv, I.V. (1 mg/kg)): 4.21 ± 0.19 L/kg | IC50 [2]: < 100 nM | IC50 [3]: 100 to 1000 nM | AUC ([4]; Oral (5 mg/kg)): 210 ± 60 ng·h/mL | Tmax ([4]; Oral (5 mg/kg)): 4 ± 2 h | bioavailability ([4]; Oral (5 mg/kg)): 8.35 ± 2.4% | half-life ([4]; Oral (5 mg/kg)): 1.29 ± 0.24 h | Cmax [4, 9]: 50.1 ± 11 ng/mL | AUC ([4]; iv, I.V. (1 mg/kg)): 504 ± 58 ng·h/mL | clearance ([4]; iv, I.V. (1 mg/kg)): 33.1 ± 4 mL/min/kg | half-life ([4]; iv, I.V. (1 mg/kg)): 0.323 ± 0.035 h | Cmax [4, 10]: 1980 ± 101 ng/mL | Vd ([4]; iv, I.V. (1 mg/kg)): 0.653 ± 0.03 L/kg | IC50 [5]: 100 to 1000 nM | Kd (JAK1 (JH2 domain)): < 100 nM | AUC ([6]; I.V. (2 mg/kg)): 1911 | AUC ([6]; Oral (10 mg/kg)): 6395 | Tmax ([6]; Oral (10 mg/kg)): 0.5 h | bioavailability ([6]; Oral (10 mg/kg)): 66.6% | half-life ([6]; Oral (10 mg/kg)): 3.27 h | Cmax [6, 11]: 1900 ng/mL | clearance ([6]; iv, I.V. (2 mg/kg)): 17.3 mL/min/kg | half-life ([6]; iv, I.V. (2 mg/kg)): 0.97 h | Cmax [6, 12]: 3340 ng/mL | Vd ([6]; iv, I.V. (2 mg/kg)): 0.785 L/kg | Kd (TYK2 (JH2 domain)): ≤ 1 nM

From US11053219B2, “Substituted pyridines as TYK2 inhibitors” (FronThera U.S. Pharmaceuticals LLC, priority 2018, dated 2021)
